Source: patent publication EP1408948B1, “THYROID THERAPEUTIC AGENT COMPRISING PARTIAL GLYCERIDES AND DEXTRINE” (BERLIN-CHEMIE Aktiengesellschaft, priority 2001, dated 2003)

Columns and labels:
[1] = oral, steady state after 6 weeks of medication, patients on long-term medication; cited from earlier work
[2] = In vitro release of Levothyroxin-Natrium from tablets, paddle apparatus; assay type: physicochemical; conditions: tablets of 50, 100, 150, 200 µg, 100 rpm, 500 ml phosphate buffer pH 7,4, data only in Fig. 1-4
Source text: Die folgenden in vitro Untersuchungen der erfindungsgemäß hergestellten Tabletten belegen, dass der Wirkstoff Levothyroxin-Natrium aus den Tabletten der unterschiedlichen Dosierungen in gleicher Geschwindigkeit und […] Ausmaß freigesetzt und somit dem Körper zur Verfügung gestellt werden kann. Die Untersuchungen zur Freisetzung wurden mit den Tabletten gemäß den Beispielen 2 und 3 durchgeführt. In den Figuren 1 bis 4 ist die jeweilige Freisetzung dargestellt. An […] % angegeben, an […] Zeit aufgetragen. Die Balken geben den Vertrauensbereich des […] von Levothyroxin-Natrium aus Tabletten (50 μg), Tablettenmasse 52 mg, Paddle-Apparatur, 100 rpm, […]: 500 ml Phosphatpuffer pH 7,4; • Fig. 2: Freisetzung von Levothyroxin-Natrium aus Tabletten (100 μg), Tablettenmasse 104 mg, Paddle-Apparatur, 100 rpm, […]: 500 ml Phosphatpuffer pH 7, 4; • Fig. 3: Freisetzung von Levothyroxin-Natrium aus Tabletten (150 μg), Tablettenmasse 156 mg, Paddle-Apparatur, 100 rpm, […]: 500 ml Phosphatpuffer pH 7,4 und • Fig. 4: Freisetzung von Levothyroxin-Natrium aus Tabletten (200 μg), Tablettenmasse 208 mg, Paddle-Apparatur, 100 rpm, […]: 500 ml Phosphatpuffer pH 7,4.

[3] = Bioavailability studies of levothyroxine sodium tablets of different strengths (pharmacokinetic parameters, dose linearity); assay type: in vivo; conditions: tablets of 50, 100, 150 and 200 µg made from one base formulation, oral
Protocol: Die ermittelten pharmakokinetischen Parameter der in vivo geprüften 50, 100, 150 und 200 µg Levothyroxin-Natrium enthaltenden Tabletten sind in Tabelle 1 aufgeführt.

SMILES	Kinetik (L-Thyroxin-Serumkonzentration, AUC 0 x 24, Cmax, Ctrough) [1]	Freisetzung von Levothyroxin-Natrium aus Tabletten [2]	Dosislinearität [3]
N[C@@H](Cc1cc(I)c(Oc2cc(I)c(O)c(I)c2)c(I)c1)C(=O)O [L-Thyroxin]	nicht-linearen Kinetik		
N[C@@H](Cc1cc(I)c(Oc2cc(I)c(O)c(I)c2)c(I)c1)C(=O)O [Levothyroxin-Natrium]		in gleicher Geschwindigkeit und gleichem Ausmaß freigesetzt	klare Dosislinearität
